Measured values as given in US20220127281A1, “HETEROARYL COMPOUNDS THAT INHIBIT G12C MUTANT RAS PROTEINS” (AstraZeneca AB, priority 2017, published 2022).
Where two headings read alike, the source gives them in different places.

Legend:
[1] = biological target: T1, GDP loaded biotinylated KRas^G12C protein (Homo sapiens, UniProt P01116, G12C); assay: KRasG12C mass spectrometry adducting assay; format: binding; details: test compound final concentration 10 μM, 4 μM KRasG12C, react for 4 hours
T1 construct: biotin (biotinylated); made in house
T1 sequence (P01116 1-188 isoform P01116-2 G12C): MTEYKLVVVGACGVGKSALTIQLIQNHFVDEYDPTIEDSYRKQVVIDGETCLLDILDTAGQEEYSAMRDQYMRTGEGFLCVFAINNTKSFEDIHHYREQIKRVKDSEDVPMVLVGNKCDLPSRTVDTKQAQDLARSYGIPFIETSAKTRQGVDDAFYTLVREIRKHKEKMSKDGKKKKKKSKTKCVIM
In short: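 GDP-loaded biotinylated KRasG12C incubated with compound in 20 mM HEPES pH 7.5, 5 mM MgCl2, 150 mM NaCl, then analysed by LC–QTOF MS.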

[2] = biological target: T1, GDP loaded biotinylated KRas^G12C protein; assay: KRasG12C functional assay; format: biochemical; details: HTRF FRET readout of SOS-mediated nucleotide exchange and GST-Raf RBD binding, samples incubated for 4 hrs
In short: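 Biotinylated GDP-loaded KRasG12C exchange driven by 0.08 μM SOS with 0.6 μM GTPγS, read by HTRF between europium and XL665 as active KRas binds 20 nM GST-Raf RBD. Buffer: 20 mM HEPES pH 7.5, 5 mM MgCl2, 150 mM NaCl, 0.01% Tween 20. IC50 from normalised FRET dose-response fits.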

[3] = read-out: KRasG12C functional assay IC50 value

C=CC(=O)N1CCN2c3nc(N4CC(N(C)C)C4)nc4cc(-c5c(C)ccc6[nH]ncc56)c(Cl)c(c34)OC[C@@H]2C1 (single isomer, unassigned) [Example 76]
KRasG12C M.S. Binding Mean adduct % [1]: 0% | IC50 [2, 3]: 22.4 µM

C=CC(=O)N1CCN2c3ncnc4cc(-c5ccccc5C)c(Cl)c(c34)OC[C@@H]2C1 [Example 41, 1-[(8aS)-6-Chloro-5-(2-methylphenyl)-8a,9,11,12-tetrahydropyrazino[2′,1′:3,4][1,4]oxazepino[5,6,7-de]quinazolin-10(8H)-yl]prop-2-en-1-one]
KRasG12C M.S. Binding Mean adduct % [1]: 100% | IC50 [2, 3]: 0.479 µM

C=CC(=O)N1CCN2c3ncnc4cc(-c5cccc6[nH]ccc56)c(Cl)c(c34)OC[C@@H]2C1 [Example 53, 1-[(8aS)-6-Chloro-5-(1H-indol-4-yl)-8a,9,11,12-tetrahydropyrazino[2′,1′:3,4][1,4]oxazepino[5,6,7-de]quinazolin-10(8H)-yl]prop-2-en-1-one]
KRasG12C M.S. Binding Mean adduct % [1]: 74% | IC50 ([2]; KRasG12C functional assay IC50 value (μM)): 1.69 µM

C=CC(=O)N1CCN2c3ncnc4cc(-c5c(C)ccc6[nH]ncc56)c(Cl)c(c34)OCC[C@@H]2C1 (single isomer, unassigned) [Example 81]
KRasG12C M.S. Binding Mean adduct % [1]: 100% | IC50 [2, 3]: 0.012 µM

C=CC(=O)N1CCN2c3ncnc4cc(-c5c(O)cccc5F)c(Cl)c(c34)OC[C@@H]2C1 (single isomer, unassigned) [Example 10]
KRasG12C M.S. Binding Mean adduct % [1]: 30% | IC50 [2, 3]: 0.244 µM

C=CC(=O)N1CCN2c3ncnc4cc(-c5ccccc5S(C)(=O)=O)c(Cl)c(c34)OC[C@@H]2C1 [Example 29, 1-[(8aS)-6-Chloro-5-[2-(methylsulfonyl)phenyl]-8a,9,11,12-tetrahydropyrazino[2′,1′:3,4][1,4]oxazepino[5,6,7-de]quinazolin-10(8H)-yl]prop-2-en-1-one]
KRasG12C M.S. Binding Mean adduct % [1]: 45% | IC50 [2, 3]: 5.02 µM

C=CC(=O)N1CCN2c3ncnc4cc(-c5cccc6c5oc(=O)n6C)c(Cl)c(c34)OC[C@@H]2C1 [Example 22, 7-[(8aS)-10-Acryloyl-6-chloro-8,8a,9,10,11,12-hexahydropyrazino[2′,1′:3,4][1,4]oxazepino[5,6,7-de]quinazolin-5-yl]-3-methyl-1,3-benzoxazol-2(3H)-one]
KRasG12C M.S. Binding Mean adduct % [1]: 34% | IC50 [2, 3]: 1.77 µM

C=CC(=O)N1CCN2c3ncnc4cc(-c5cccc(NC(=O)OC)c5)c(Cl)c(c34)OC[C@@H]2C1 [Example 33, Methyl {3-[(8aS)-10-Acryloyl-6-chloro-8,8a,9,10,11,12-hexahydropyrazino[2′,1′:3,4][1,4]oxazepino[5,6,7-de]quinazolin-5-yl]phenyl}carbamate]
KRasG12C M.S. Binding Mean adduct % [1]: 24% | IC50 [2, 3]: 6.91 µM

C=CC(=O)N1CCN2c3ncnc4cc(-c5c(O)cccc5Cl)c(Cl)c(c34)OC[C@@H]2C1 (single isomer, unassigned) [Example 16]
KRasG12C M.S. Binding Mean adduct % [1]: 100% | IC50 [2, 3]: 0.032 µM

C=CC(=O)N1CCN2c3nc(NCCN(C)C)nc4cc(-c5c(C)ccc6[nH]ncc56)c(Cl)c(c34)OC[C@@H]2C1 (single isomer, unassigned) [Example 79]
KRasG12C M.S. Binding Mean adduct % [1]: 0% | IC50 [2, 3]: 1.72 µM

C=CC(=O)N1CCN2c3ncnc4cc(-c5cccc(S(N)(=O)=O)c5)c(Cl)c(c34)OC[C@@H]2C1 [Example 31, 3-[(8aS)-10-Acryloyl-6-chloro-8,8a,9,10,11,12-hexahydropyrazino[2′,1′:3,4][1,4]oxazepino[5,6,7-de]quinazolin-5-yl]benzenesulfonamide]
KRasG12C M.S. Binding Mean adduct % [1]: 14% | IC50 [2, 3]: 6.97 µM

C=CC(=O)N1CCN2c3ncnc4cc(-c5ccccc5OC(F)(F)F)c(Cl)c(c34)OC[C@@H]2C1 [Example 35, 1-[(8aS)-6-Chloro-5-[2-(trifluoromethoxy)phenyl]-8a,9,11,12-tetrahydropyrazino[2′,1′:3,4][1,4]oxazepino[5,6,7-de]quinazolin-10(8H)-yl]prop-2-en-1-one]
KRasG12C M.S. Binding Mean adduct % [1]: 87% | IC50 [2, 3]: 1.48 µM

C=CC(=O)N1CCN2c3ncnc4cc(-c5c(F)cccc5OC)c(Cl)c(c34)OC[C@@H]2C1 [Example 25, 1-[(8aS)-6-Chloro-5-(2-fluoro-6-methoxyphenyl)-8a,9,11,12-tetrahydropyrazino[2′,1′:3,4][1,4]oxazepino[5,6,7-de]quinazolin-10(8H)-yl]prop-2-en-1-one]
KRasG12C M.S. Binding Mean adduct % [1]: 89% | IC50 [2, 3]: 0.616 µM

Cc1ccc2[nH]ncc2c1-c1cc2ncnc3c2c(c1Cl)OC[C@@H]1CN(C(=O)/C=C/CN(C)C)CCN31 [Example 4, (E)-1-((8aS)-6-Chloro-5-(5-methyl-1H-indazol-4-yl)-8a,9,11,12-tetrahydropyrazino[2′,1′:3,4][1,4]oxazepino[5,6,7-de]quinazolin-10 (8H)-yl)-4-(dimethylamino)but-2-en-1-one]
KRasG12C M.S. Binding Mean adduct % [1]: 74% | IC50 [2, 3]: 0.518 µM

C=CC(=O)N1CCN2c3ncnc4cc(-c5c(O)cccc5OC)c(Cl)c(c34)OC[C@@H]2C1 (single isomer, unassigned) [Example 17]
KRasG12C M.S. Binding Mean adduct % [1]: 0% | IC50 [2, 3]: > 100 µM

C=CC(=O)N1CCN2c3ncnc4cc(-c5cccc6c5CN(C)CC6)c(Cl)c(c34)OC[C@@H]2C1 [Example 34, 1-[(8aS)-6-Chloro-5-(2-methyl-1,2,3,4-tetrahydroisoquinolin-8-yl)-8a,9,11,12-tetrahydropyrazino[2′,1′:3,4][1,4]oxazepino[5,6,7-de]quinazolin-10(8H)-yl]prop-2-en-1-one]
KRasG12C M.S. Binding Mean adduct % [1]: 8% | IC50 [2, 3]: 3.47 µM
